Data as given in patent publication US9844542B2, “Substituted imidazopyridine and triazolopyridine compounds as negative allosteric modulators of mGluR5” (Vanderbilt University, priority 2013, dated 2017).
Where “and” joins values, the source holds several entries; their conditions need not be identical. Equal values may be shown once.

molecular target: T1, rat mGluR5 (Rattus norvegicus, UniProt P31424); test: mGluR5 calcium mobilization assay (FDSS, Fluo-4) in HEK 293A cells stably expressing rat mGluR5; assay type: cell-based; conditions: HEK cells transfected with rat mGluR5; antagonism of glutamate EC80 response; ± = standard error of at least three experiments
T1 construct: expressed in transfected cells
T1 sequence (P31424 21-1171 isoform P31424-2 limits assumed): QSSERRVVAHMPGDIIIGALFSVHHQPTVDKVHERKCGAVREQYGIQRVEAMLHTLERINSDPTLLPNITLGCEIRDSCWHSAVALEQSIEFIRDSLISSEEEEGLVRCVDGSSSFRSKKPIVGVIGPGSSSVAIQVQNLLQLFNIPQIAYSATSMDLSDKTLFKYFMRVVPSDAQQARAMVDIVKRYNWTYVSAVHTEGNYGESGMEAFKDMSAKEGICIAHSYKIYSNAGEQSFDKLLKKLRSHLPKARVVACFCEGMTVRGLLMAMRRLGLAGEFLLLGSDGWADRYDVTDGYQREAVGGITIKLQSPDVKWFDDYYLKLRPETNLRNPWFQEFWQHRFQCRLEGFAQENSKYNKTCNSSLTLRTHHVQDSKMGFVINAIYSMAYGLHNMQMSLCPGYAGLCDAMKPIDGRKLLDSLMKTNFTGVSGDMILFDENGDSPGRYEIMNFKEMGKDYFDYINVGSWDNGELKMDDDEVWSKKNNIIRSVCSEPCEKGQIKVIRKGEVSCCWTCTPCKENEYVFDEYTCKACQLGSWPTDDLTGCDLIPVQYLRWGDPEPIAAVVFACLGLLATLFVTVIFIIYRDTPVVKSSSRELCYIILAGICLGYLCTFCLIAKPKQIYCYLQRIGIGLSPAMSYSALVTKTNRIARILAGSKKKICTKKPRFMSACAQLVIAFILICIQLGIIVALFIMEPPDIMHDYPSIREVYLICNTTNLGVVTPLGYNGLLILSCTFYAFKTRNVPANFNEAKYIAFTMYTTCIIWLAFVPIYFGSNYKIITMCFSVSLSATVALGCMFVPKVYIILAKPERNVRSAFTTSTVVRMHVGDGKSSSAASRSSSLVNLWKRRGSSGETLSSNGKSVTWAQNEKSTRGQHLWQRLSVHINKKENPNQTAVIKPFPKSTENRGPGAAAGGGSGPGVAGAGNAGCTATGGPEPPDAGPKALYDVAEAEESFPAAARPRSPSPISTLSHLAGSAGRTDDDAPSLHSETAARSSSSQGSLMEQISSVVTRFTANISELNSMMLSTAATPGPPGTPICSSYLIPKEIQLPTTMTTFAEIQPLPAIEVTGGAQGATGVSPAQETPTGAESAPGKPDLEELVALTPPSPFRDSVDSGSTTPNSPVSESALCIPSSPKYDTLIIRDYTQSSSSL
Protocol: Human embryonic kidney (HEK) cells transfected with rat or human mGluR5 were plated in clear bottom assay plates for assay in a Functional Drug Screening System (FDSS). The cells were loaded with a Ca^2+-sensitive fluorescent dye (e.g., Fluo-4), and the plates were washed and placed in the FDSS instrument. Test compound was applied to cells 3 seconds after baseline readings were taken. Cells were incubated with the test compounds for 140 seconds and then stimulated with an EC20 concentration of an mGluR5 agonist (e.g., glutamate, 3,5-dihydroxyphenylglycine, or quisqualate); 60-80 seconds later an EC80 concentration of agonist was added and readings taken for an additional 40 seconds. Data were collected at 1 Hz. […] Concentration response curves were generated using a four parameter logistical equation.
The above described assay was operated in two modes. In the first mode (utilizing a triple add protocol), a range of concentrations of the present compounds were added to cells, followed by two single fixed concentrations of agonist (EC20 followed by EC80). If a compound acted as a potentiator, an EC50 value for potentiation of the EC20 response and a maximum extent of potentiation by the compound at this concentration of agonist was determined by non-linear curve fitting. If a compound acted as an antagonist, an IC50 value for antagonism of the EC80 response and a maximum extent of antagonism by the compound at this concentration of agonist was determined by non-linear curve fitting. In the second mode (utilizing a double add protocol), several fixed concentrations of the present compounds were added to various wells on a plate, followed by a range of concentrations of agonist for each concentration of present compound; the EC50 values for the agonist at each concentration of compound were determined by nonlinear curve fitting. A decrease in the EC50 value of the agonist with increasing concentrations of the present compounds (a leftward shift of the agonist concentration-response curve) is an indication of the degree of mGluR5 positive allosteric modulation at a given concentration of the present compound. An increase in the EC50 value of the agonist with increasing concentrations of the present compounds (a rightward shift of the agonist concentration response curve) is an indication of the degree of mGluR5 antagonism at a given concentration of the present compound. The second mode also indicates whether the present compounds also affect the maximum response to mGluR5 to agonists.
The mGluR5 activity was determined using the calcium mobilization assays in human embryonic kidney cells as described herein below, wherein the human embryonic kidney cells were transfected with rat mGluR5. The mGluR5 activity data for some compounds are shown as the average of at least three experiments with the standard error in these cases. If no error is indicated for the mGluR5 activity, the values given represent the results from a single experiment or the average of two experiments. The compounds in Table 1 were synthesized with methods identical or analogous to those shown herein. The requisite starting materials were commercially available, described in the literature, or readily synthesized by one skilled in the art of organic synthesis.
GluMax is the amplitude of response in the presence of 30 μM test compound as a percentage of maximal response (100 μM glutamate). Partial antagonists display concentration-response curves (CRCs) that plateau above 10%.
The preparation of rat mGluR5 stable cell-lines is as previously described (e.g. see Romano et al. J Biol. Chem. 1996 Nov. 8; 271(45):28612-6).

Row | IC50 | SMILES
1 | 32 nM | O=C(Nc1cccc(F)n1)c1cc(Oc2cccnc2)cn2ncnc12
2 | 97 nM | Cc1nc2c(C(=O)Nc3ccccn3)cc(Oc3cncc(F)c3)cn2n1
3 | 16 nM | O=C(Nc1ccccn1)c1cc(Oc2cncc(F)c2)cn2ccnc12
4 | 33 nM | O=C(Nc1ccccn1)c1cc(Oc2cncc(F)c2)cn2cnnc12
5 | 62 nM | Cc1csc(NC(=O)c2cc(Oc3cncc(Cl)c3)cn3ncnc23)n1
6 | > 10000 nM | COc1cncc(Oc2cc(C(=O)Nc3cccc(OC)n3)c3nncn3c2)c1
7 | 723 nM | O=C(Nc1cc(F)ccn1)c1cc(Oc2cncc(F)c2)cn2ncnc12
8 | 128 nM | Cc1cncc(Oc2cc(C(=O)Nc3nc(C)cs3)c3ncnn3c2)c1
9 | 138 nM | Cc1ccc(NC(=O)c2cc(Oc3cncnc3)cn3ncnc23)nc1
10 | > 10000 nM | Cc1ncc(Oc2cc(C(=O)Nc3cccc(F)n3)c3nncn3c2)cn1
11 | 2060 nM | CCc1cccc(NC(=O)c2cc(Oc3cncnc3)cn3cnnc23)n1
12 | 1310 nM | Cc1ccc(NC(=O)c2cc(Oc3cncc(F)c3)cn3c(C)nnc23)nc1
13 | 12 nM | O=C(Nc1ccc(F)cn1)c1cc(Oc2cncc(F)c2)cn2ccnc12
14 | 104 nM | [2H]c1nc(NC(=O)c2cc(Oc3cncc(OC)c3)cn3ncnc23)c([2H])c([2H])c1[2H]
15 | 199 nM | Cc1cccc(NC(=O)c2cc(Oc3cncc(F)c3)cn3nc(C)nc23)n1
16 | 468 nM | Cc1ccc(NC(=O)c2cc(Oc3cncc(F)c3)cn3nc(C)nc23)nc1
17 | 80 nM | COc1cncc(Oc2cc(C(=O)Nc3cccc(C)n3)c3nccn3c2)c1
18 | 846 nM | Cc1nc2c(C(=O)Nc3ccc(F)c(C)n3)cc(Oc3cncc(F)c3)cn2n1
19 | 39 nM | COc1ccc(NC(=O)c2cc(Oc3cncc(F)c3)cn3ccnc23)nc1
20 | 15 nM | [2H]c1nc(NC(=O)c2cc(Oc3cncc(F)c3)cn3ccnc23)c([2H])c([2H])c1[2H]
21 | 117 nM | O=C(Nc1cccc(F)n1)c1cc(Oc2cncnc2)cn2ncnc12
22 | 232 nM | O=C(Nc1cccc(F)n1)c1cc(Oc2cncnc2)cn2cnnc12

Row | IC50 | SMILES
23 | 176 nM | O=C(Nc1ccccn1)c1cc(Oc2cncc(Cl)c2)cn2cnnc12
24 | 135 nM | Cc1ccc(NC(=O)c2cc(Oc3cncc(Cl)c3)cn3ncnc23)nc1
25 | 100 nM and 75 nM | O=C(Nc1ccc(F)cn1)c1cc(Oc2cncnc2)cn2ncnc12 [drawing 195]
26 | 164 nM | Cc1nc(NC(=O)c2cc(Oc3cncc(F)c3)cn3cnnc23)ccc1F
27 | 32 nM | O=C(Nc1ccccn1)c1cc(Oc2cncc(Cl)c2)cn2ncnc12
28 | 258 nM | COc1cncc(Oc2cc(C(=O)Nc3cccc(F)n3)c3ncnn3c2)c1
29 | 114 nM | CCc1cccc(NC(=O)c2cc(Oc3cccnc3)cn3ncnc23)n1
30 | 76 nM | O=C(Nc1ccc(F)cn1)c1cc(Oc2cncc(Cl)c2)cn2ccnc12
31 | 55 nM | [2H]c1nc(NC(=O)c2cc(Oc3cncc(C)c3)cn3ncnc23)c([2H])c([2H])c1[2H]
32 | 43 nM | [2H]c1nc(NC(=O)c2cc(Oc3cncc(Cl)c3)cn3ncnc23)c([2H])c([2H])c1[2H]
33 | > 10000 nM | Cc1ncc(Oc2cc(C(=O)Nc3ccc(F)cn3)c3nncn3c2)cn1
34 | 410 nM | Cc1nc2c(C(=O)Nc3cccc(F)n3)cc(Oc3cncc(F)c3)cn2n1
35 | 275 nM | COc1ccc(NC(=O)c2cc(Oc3cncc(C)c3)cn3ncnc23)nc1
36 | 40 nM | COc1cncc(Oc2cc(C(=O)Nc3ccc(F)cn3)c3nccn3c2)c1
37 | 58 nM | Cc1cccc(NC(=O)c2cc(Oc3cncc(F)c3)cn3ncnc23)n1
38 | 86 nM | O=C(Nc1ccccn1)c1cc(Oc2cc(F)cnc2F)cn2ncnc12
39 | 50 nM | Cc1ccc(NC(=O)c2cc(Oc3cccnc3)cn3ncnc23)nc1
40 | 193 nM | Cc1csc(NC(=O)c2cc(Oc3cncc(C#N)c3)cn3ncnc23)n1
41 | 3620 nM | Cc1cccc(NC(=O)c2cc(Oc3cnc(C)nc3)cn3ccnc23)n1
42 | 162 nM | O=C(Nc1ccc(F)cn1)c1cc(Oc2cncnc2)cn2cnnc12
43 | 296 nM | Cc1nc(NC(=O)c2cc(Oc3cncnc3)cn3ncnc23)ccc1F
44 | 244 nM | O=C(Nc1nc(CF)cs1)c1cc(Oc2cncnc2)cn2ncnc12

Row | IC50 | SMILES
45 | 59 ± 11 nM | O=C(Nc1ccc(F)cn1)c1cc(Oc2cnc(F)c(F)c2)cn2ncnc12
46 | 267 nM | Cc1ccc(NC(=O)c2cc(Oc3cncc(C)c3)cn3ncnc23)nc1
47 | 46 nM | [2H]c1nc(NC(=O)c2cc(Oc3cncc(OC)c3)cn3ccnc23)c([2H])c([2H])c1[2H]
48 | 25 nM | O=C(Nc1ccccn1)c1cc(Oc2cncc(F)c2)cn2ncnc12
49 | 3710 nM | Cc1ncc(Oc2cc(C(=O)Nc3ccc(F)cn3)c3nccn3c2)cn1
50 | 380 nM | Cc1nc(NC(=O)c2cc(Oc3cncc(Cl)c3)cn3ncnc23)ccc1F
51 | 264 nM | CCc1cccc(NC(=O)c2cc(Oc3cncc(Cl)c3)cn3ncnc23)n1
52 | 285 nM | O=C(Nc1ccc(F)cn1)c1cc(Oc2cncc(Cl)c2)cn2cnnc12
53 | 127 nM | O=C(Nc1ccc(F)cn1)c1cc(Oc2cncc(OC(F)F)c2)cn2ncnc12
54 | 48 nM | Cc1ccc(NC(=O)c2cc(Oc3cncc(F)c3)cn3ccnc23)nc1
55 | 101 nM | CCc1cccc(NC(=O)c2cc(Oc3cncc(F)c3)cn3ncnc23)n1
56 | 334 nM | COc1cncc(Oc2cc(C(=O)Nc3cccc(OC)n3)c3ncnn3c2)c1 [drawing 305]
57 | 666 nM | Cc1csc(NC(=O)c2cc(Oc3cncc(Cl)c3)cn3cnnc23)n1
58 | 623 nM | CCc1cccc(NC(=O)c2cc(Oc3cncc(F)c3)cn3nc(C)nc23)n1
59 | 83 nM | Cc1csc(NC(=O)c2cc(Oc3cncc(F)c3F)cn3ncnc23)n1
60 | 62 nM | O=C(Nc1cccc(F)n1)c1cc(Oc2cncc(Cl)c2)cn2ncnc12
61 | 3970 nM | COc1ccc(NC(=O)c2cc(Oc3cncc(OC)c3)cn3cnnc23)nc1
62 | 53 nM | Cc1ccc(NC(=O)c2cc(Oc3cncc(F)c3)cn3ncnc23)nc1
63 | 92 nM | Cc1nc(NC(=O)c2cc(Oc3cncc(F)c3)cn3ncnc23)ccc1F
64 | 3310 nM | Cc1ncc(Oc2cc(C(=O)Nc3ccccn3)c3nccn3c2)cn1
65 | 99 nM | COc1cncc(Oc2cc(C(=O)Nc3ccccn3)c3ncnn3c2)c1
66 | 559 nM | CCc1cccc(NC(=O)c2cc(Oc3cnc(F)c(F)c3)cn3ncnc23)n1

Row | IC50 | SMILES
67 | 219 nM | O=C(Nc1ccccn1)c1cc(Oc2cncnc2)cn2ncnc12
68 | 624 nM | COc1ccc(NC(=O)c2cc(Oc3cncc(Cl)c3)cn3cnnc23)nc1
69 | 1070 nM | Cc1nnc2c(C(=O)Nc3cccc(F)n3)cc(Oc3cncc(F)c3)cn12
70 | 10300 nM | COc1cncc(Oc2cc(C(=O)Nc3ccc(F)c(C)n3)c3nncn3c2)c1
71 | 52 nM | O=C(Nc1ccccn1)c1cc(Oc2cnc(F)c(F)c2)cn2ncnc12
72 | 1230 nM | [2H]c1nc(NC(=O)c2cc(Oc3cncc(OC)c3)cn3cnnc23)c([2H])c([2H])c1[2H]
73 | 674 nM | Cc1cccc(NC(=O)c2cc(Oc3cncnc3)cn3cnnc23)n1
74 | 5780 nM | Cc1ncc(Oc2cc(C(=O)Nc3cccc(F)n3)c3nccn3c2)cn1
75 | 138 nM | O=C(Nc1ccc(F)cn1)c1cc(Oc2cc(F)cnc2F)cn2ncnc12
76 | 33 nM | O=C(Nc1ccccn1)c1cc(Oc2cncc(Cl)c2)cn2ccnc12
77 | > 10000 nM | Cc1ccc(NC(=O)c2cc(Oc3cnc(C)nc3)cn3cnnc23)nc1
78 | 1360 nM | COc1cccc(NC(=O)c2cc(Oc3cncc(Cl)c3)cn3cnnc23)n1
79 | 1180 nM | CCc1cccc(NC(=O)c2cc(Oc3cncc(F)c3)cn3c(C)nnc23)n1
80 | 127 nM | Cc1csc(NC(=O)c2cc(Oc3cncc(C#N)c3)cn3ccnc23)n1
81 | 189 nM | Cc1nc(NC(=O)c2cc(Oc3cncc(F)c3)cn3ccnc23)ccc1F
82 | 377 nM | CCc1cccc(NC(=O)c2cc(Oc3cncc(OC)c3)cn3ccnc23)n1
83 | 310 nM | Cc1nc2c(C(=O)Nc3ccc(F)cn3)cc(Oc3cncc(F)c3)cn2n1
84 | 40 nM | COc1cccc(NC(=O)c2cc(Oc3cccnc3)cn3ncnc23)n1
85 | 44 nM | O=C(Nc1ccccn1)c1cc(Oc2cncc(O)c2)cn2ncnc12
